Assay results reported in PubChem BioAssay (NCI).
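Dose response: 5 concentrations. Exposure: 48 h. Format: 96-well plates. Endpoint: linear interpolation; highest concentration if not reached. TGI marks complete inhibition of growth.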

Key:
Assay in all cases: DTP human tumour cell line panel, 48 h
[1] = tested on: A498 renal
[2] = tested on: DU-145 prostate
[3] = tested on: HOP-92 NSCLC
[4] = tested on: HS 578T breast
[5] = tested on: KM12 colon
[6] = tested on: MCF7 breast
[7] = tested on: MDA-MB-231 breast
[8] = tested on: MDA-MB-435
[9] = tested on: OVCAR-3 ovarian
[10] = tested on: SNB-19 CNS
[11] = tested on: UO-31 renal
[12] = tested on: DLD-1 colon
[13] = tested on: DMS 114 small cell lung
[14] = tested on: DMS 273 small cell lung
[15] = tested on: KM20L2 colon
[16] = tested on: LOX IMVI melanoma
[17] = tested on: LXFL 529 NSCLC
[18] = tested on: M19-MEL melanoma
[19] = tested on: SNB-78 CNS
[20] = tested on: XF 498 CNS

O=C(c1ccco1)C1CC(c2c(O)ccc3ccccc23)=NN1 (centres undefined)
TGI [1]: 40.4 µM | TGI [2]: 30.8 µM | TGI [3]: 37.4 µM | TGI [4]: 46.3 µM | TGI [5]: 24.3 µM | TGI [6]: 22 µM | TGI [7]: 37.3 µM | TGI [8]: 22.4 µM | TGI [9]: 25.8 µM | TGI [10]: 47.8 µM | TGI [11]: 23.1 µM

O=[N+]([O-])c1ccc(C2=Nc3ccccc3SC(c3ccccc3)C2)cc1 (centres undefined)
TGI [1]: 47.9 µM | TGI [12]: 48.3 µM | TGI [13]: 32.8 µM | TGI [14]: 27.5 µM | TGI [5]: 32.2 µM | TGI [15]: 32.8 µM | TGI [16]: 29.3 µM | TGI [17]: 34.8 µM | TGI [18]: 31 µM | TGI [10]: 32.3 µM | TGI [19]: 70.9 µM | TGI [11]: 25.8 µM | TGI [20]: 31.6 µM

COC(=O)C1=C(O)C(C(=O)OC)[C@@]2(O)[C@@H](C(=O)OC)[C@H](C)[C@@H](C)[C@@H]1[C@@H]2C(=O)OC (some centres undefined)
TGI [1]: > 100 µM | TGI [2]: > 100 µM | TGI [4]: > 100 µM | TGI [5]: > 100 µM | TGI [16]: > 100 µM | TGI [6]: > 100 µM | TGI [7]: > 100 µM | TGI [8]: 39.2 µM | TGI [9]: 78.2 µM | TGI [10]: > 100 µM | TGI [11]: > 100 µM

O=C(OCc1ccccc1)C(Cc1ccccc1)N(Cc1ccccc1)Cc1ccccc1 (centres undefined)
TGI [1]: > 100 µM | TGI [12]: > 100 µM | TGI [13]: > 100 µM | TGI [14]: > 100 µM | TGI [3]: > 100 µM | TGI [5]: > 100 µM | TGI [15]: > 100 µM | TGI [17]: > 100 µM | TGI [18]: > 100 µM | TGI [9]: > 100 µM | TGI [10]: > 100 µM | TGI [19]: > 100 µM | TGI [11]: > 100 µM | TGI [20]: > 100 µM
